What was measured:
VX2 liver tumor = tested on: VX2 liver tumor
Procedure: To visualize normal liver parenchyma on CT imaging, rats received a bolus injection of 400 μL of the alkaline earth metal-based nanoparticle suspension, Exitron nano 12000 (Miltenyi Biotec, Auburn, CA) two hours prior to micro-CT scanning. Rats were anesthetized using inhalation of 2-3% isoflurane in 100% 02 at a constant flow rate of 2 L/minute and placed on a cassette equipped with a warming system and continuous gas exchange and integrated real-time motion detection camera. Fixed rat tissues were placed and immobilized using styrofoam beads inside a humidified plastic chamber. […] The 3D image stacks were reconstructed using NRecon software and InstaRecon CBR Server (version: 1.7.4.6, Bruker, Kontich, Belgium) following adjustment of random movements, beam-hardening correction, and ring artifact reduction and smoothing. 3D volume rendering was visualized using CTVox software (version: 3.3. 0 r1383, Bruker, Kontich, Belgium). The stacks were virtually rotated and axially oriented to yield transverse projections of select volume of interest (VOI) using Data Viewer software (Bruker, Kontich, Belgium).

[1] = tested on: patient derived cholangiocarcinoma, pancreas adenocarcinoma cell lines and HepG2 hepatocellular carcinoma cells; details: three cell lines, serially diluted 25-0.048% w/v, 24 or 48 hours
Procedure: (§1) To determine synergy and the concentration of a chemotherapy agent such as doxorubicin to co-administer with LATTE, cell culture experiments were performed.
(§2) HepG2 human liver cancer cell line (ATCC CRL10741; American Type Culture Collection, Manassas, VA, USA) were cultured in 75 cm^2 flasks using growth medium consisting of low glucose Dulbecco's Modified Eagle Medium (DMEM, ThermoFisher) and 10% heat-inactivated bovine serum that was supplemented with 100 IU penicillin and 10 μg/mL streptomycin (Thermo Fisher Scientific). […] The anticancer activity of LATTE on HepG2 was determined using WST-1 reagent (2-(4-Iodophenyl)-3-(4-nitrophenyl)-5-(2,4-disulfophenyl)-2H-tetrazolium sodium) assay as an indication of viability/cytotoxicity treatment. WST-1 viability assay is based on the reduction of tetrazolium salt, WST-1 to an […] formazan dye by electron transport across the plasma membrane in viable cells that alter the optical density of the media. […] At the end of the incubation period, the medium was discarded, and the wells were rinsed three times with DPBS solution followed by addition of 100 μL growth medium and 10 μL of freshly prepared WST-1 reagent into each well and then incubated for 2 hours inside the 5% CO2 incubator at 37° C. After the incubation period, the optical percent density was measured using a microplate reader at a wavelength of 450 nm (SpectraMax iD5, Molecular Devices, San Jose, CA). Cell viability was calculated relative to control wells that received the growth medium alone. Viability rate was calculated as follows: Viability (%)=[…].

[2] = tested on: pancreas ductal adenocarcinoma (Panc-1) cells; details: Panc-1, 24 hours incubation, WST-1
Procedure: as §1, §2

[3] = tested on: Cholangiocarcinoma (SNU-478) cells; details: SNU-478, 24 hours incubation, WST-1
Procedure: as §1, §2

[4] = rat, in vivo
Procedure: Next, in vivo experiments in immunocompetent rats bearing the highly malignant orthotropic N1S1 liver tumors were ablated using LATTE. Percutaneous injection of LATTE was performed and assessment also included CT imaging to mimic the clinical scenario. […] These tumors also received high-resolution in vivo micro-CT imaging following intravenous injection of Exitron contrast agent to allow accurate segmentation of the liver tumors (FIG. 1p-q). […] These tumors at two-weeks were also harvested and evaluated by histology.
All procedures were approved by the institutional animal care and use committee and performed according to institutional guidelines. […] N1S1 cells were maintained in suspension in a 75 cm^2 culture flasks at 37° C. in a 5% CO2 humidified chamber. […] To prepare the cells for inoculation, N1S1 cell aliquots were rinsed and suspended in plain IMDM (without antibiotics or serum) to yield 2×10^6 cells in 100 μL of fresh aliquots for each inoculation. The rat liver was surgically exposed through upper midline laparotomy under isoflurane anesthesia followed by subcapsular inoculation of N1S1 cells into the left liver lobe. Gentle compression with gauze for hemostasis was used to prevent cell reflux. The abdominal incision was closed using interrupted Vicryl sutures for abdominal muscle and subcuticular suture for the skin, followed by the application of Vetbond tissue adhesive (3M, St. Paul, MN) followed by recovery from anesthesia. Intratumoral injection of the ionic liquid mixture was performed in three groups of rats bearing 0.5 cm^3 N1S1 tumor lesions measured with ultrasound. […] All solutions contained 0.25 mg/mL indocyanine green (ICG, Sigma-Aldrich, St. Louis, MO) solubilized in normal saline. Following intratumoral injections, treated rats were allowed to survive for 2 weeks after treatment, and tumor volume was documented using ultrasound. N1S1 tumor progression and treatment response was assessed using percutaneous ultrasonography. Selected focal zone depth, gain, and tissue harmonic settings were optimized during the acquisition of the initial imaging at baseline, and the same parameters were applied during acquisition after intratumoral injection of LATTE mixture. Serial ultrasound examinations were performed on rat livers following N1S1 inoculation to confirm tumor formation and assess tumor volume. Rats were anesthetized using a gas mixture of 2-3% isoflurane in 100% oxygen via a nose cone. Rats were secured in a supine position on an electronically controlled warming platform to maintain the temperature at 37° C. during the imaging procedure. The abdominal area was shaved and prepped with depilatory cream (Nair, Church& Dwight Co. INC). Initially, abdominal sonography was performed to delineate tumor mass boundaries in grayscale (B-mode) using ACUSON 52000 system (Siemens Inc., Germany) and a multi-frequency linear transducer (9L4, 9.0 MHz). The transducer was positioned to obtain 2D scans via the subcostal window to document liver tumors and measure lesion diameter. […] Tumor volumes were calculated as following: V=(4/3)×π×(1/2) SI×(1/2)LM×1/2 AP. Color Doppler images were also acquired to detect the distribution of the tumor blood flow weekly.

choline-geranate [LATTE]
tumor histology (VX2 liver tumor; compared to saline injected tumors): extensive necrosis
tumor perfusion (Doppler, laser speckle) (VX2 liver tumor; following injection): markedly diminished perfusion
effective concentration that causes 50% cell death (EC50) [1]: 0.18-0.3%
effective dose (EC50), fractional cell viability [2]: 0.3%
effective dose (EC50), fractional cell viability [3]: 0.2%
ALP [4]: *211 ± 29 U/L
ALT [4]: 57 ± 13 U/L
BUN [4]: **25 ± 2.4 mg/dL
CRE [4]: 0.3 ± 0.04 mg/dL
CRP [4]: 459 ± 38 ng/mL
GLU [4]: 268 ± 75 mg/dL
Total Protein [4]: 5.2 ± 0.3 g/dL
liver and renal function from serum samples [4]: normal liver and renal function

— patent US12661404B2, “Methods and materials for tissue ablation” (Mayo Foundation for Medical Education and Research, priority 2020, dated 2026)
